Assay results reported in PMC9503459, “Antifungal Activity, Structural Stability, and Immunomodulatory Effects on Human Immune Cells of Defensin from the Lentil Lens culinaris” (Membranes, 2022).
No end group written: not given here.

Tested on: monocyte-derived mature dendritic cells (moDCs)
Test: Cytokine response by multiplex xMAP, moDCs
Format: cell-based, human
Conditions: 2 µM, 24 h
Description: Colorectal adenocarcinoma Caco-2 cell line (ATCC HTB-37) was cultured in complete DMEM/F12 (1:1) medium containing 10% fetal bovine serum (FBS, Gibco) and 1X antibiotic-antimycotic solution (1XAAS, Invitrogen, Waltham, MA, USA). The acute monocytic leukemia THP-1 line (ATCC TIB-202) was cultured in complete RPMI-1640 medium, containing 10% FBS, 1XAAS, and […]. THP-1 cells were differentiated into pro-inflammatory macrophages (Mφ1) with phorbol 12-myristate 13-acetate (Sigma-Aldrich) for 24 h and subsequently polarized with lipopolysaccharide from E. coli (Sigma-Aldrich) and rhIFN-γ (Sigma-Aldrich) for another 48 h according to previously reported protocol. All cells were cultured in a humidified CO2 incubator (5% CO2, 37 °C). Primary peripheral blood mononuclear cells (PBMCs) collected from a healthy donor were purchased from American Type Culture Collection (ATCC PCS-800-011). CD4^+ T-helper and CD8^+ T cytotoxic cells were isolated from PBMCs by magnetic separation with mouse anti-human CD4-PE (clone 13B8.2, Beckman Coulter Diagnostics, Pasadena, CA, USA) and CD8-PE (clone REA734, Miltenyi Biotec, Bergisch Gladbach, Germany), Anti-PE MicroBeads (Miltenyi Biotec), and LS Separation Columns (Miltenyi Biotec). Isolated CD4^+ and CD8^+ cells were expanded separately with Dynabeads™ Human T-Expander CD3/CD28 (Gibco, Waltham, MA, USA) in RPMI-1640 supplemented with 10% FBS, 1XAAS and 100 U/mL rh-IL-2 (Gibco). Regulatory CD4^+ FoxP3^+ T cells (Tregs) were isolated from PBMCs by magnetic separation with CD4^+CD25^+ Regulatory T Cell Isolation Kit, human (Miltenyi Biotec). Primary CD14^+ blood monocytes were isolated from PBMCs by adherence according to standard technique. Monocyte-derived mature dendritic cells (moDCs) were obtained from CD14^+ blood monocytes according to the previously reported protocol. Briefly, blood monocytes were incubated in complete RPMI-1640 medium, containing 10% FBS, 1XAAS, 800 U/mL rhGM-CSF (Sci-Store, Russia, Moscow) and 500 U/mL rhIL-4 (Sci-Store) for 3 days. Fresh complete RPMI-1640 medium with rhGM-CSF and rhIL-4 was added to the culture on day 3. On day 5, fresh complete RPMI-1640 containing 100 U/mL rhTNF-α (Sigma) as well as 800 U/mL rhGM-CSF and 500 U/mL rhIL-4 was added and the culture was incubated for another 4 days until full maturation.
Caco-2 cells were seeded into the wells of a 48-well plate, coated with 0.1% bovine collagen (Sigma-Aldrich) for 24 h, 3 weeks before the experiment with complete DMEM/F12 (1:1) medium renewal every 2–3 days. Monocytes, moDCs, CD4^+ T-helper and CD8^+ T cytotoxic cells, Mφ1, and Regulatory CD4^+ FoxP3^+ T cells were seeded into the wells of 48-well plates in the complete RPMI-1640 medium supplemented with 10% Human AB serum (HABS, Capricorn Scientific, Ebsdorfergrund, Germany) and 1XAAS 24 h prior to the experiment; medium in Caco-2-containing wells was also replaced with the same medium. After 24 h, half of the medium in each well was replaced by fresh complete RPMI-1640 medium with 10% HABS, supplemented with 4 µM of Lc-def for the sample wells or fresh medium alone for the control wells. Cell cultures were kept in CO2-incubator (5% CO2, 37 °C) for another 24 h. Culture supernatants were collected 24 h later and stored at −70 °C degrees less than one month prior to the analytes assessment. […]

Lc-def: defensin from lentil Lens culinaris seeds (UniProt:B3F051), recombinant, overexpressed in Escherichia coli (KTCENLSDSFKGPCIPDGNCNKHCKEKEHLLSGRCRDDFRCWCTRNC; disulfide (positions not given here); ends not checked; also: disulfide bonds present, pairing not given here; UniProt B3F051 28-74, looked up)
EGF: 2.16 pg/mL
Eotaxin: <3.23↓ pg/ml
FGF-2: 34.19 pg/mL
FLT-3L: 0.84 pg/mL
Fractalkine: <23.19↓ pg/ml
G-CSF: 4.71 pg/mL
GM-CSF: 10.34 pg/mL
GROa: <0.67↓ pg/ml
IFNa2: 7.77 pg/mL
IFNg: 3.79 pg/mL
IL-1RA: 37.33 pg/mL
IL-1a: 20.45 pg/mL
IL-1b: <18.72↓ pg/ml
IL-2: 0.98 pg/mL
IL-3: <0.48↓ pg/ml
IL-4: <0.31↓ pg/ml
IL-5: 2.41 pg/mL
IL-6: 1.12 pg/mL
IL-7: <0.33↓ pg/ml
IL-8: 162.8 pg/mL
IL-9: 4.1 pg/mL
IL-10: 14.42 pg/mL
IL-12 (p40): 19.56 pg/mL
IL-12 (p70): <1.48↓ pg/ml
IL-13: 11.42 pg/mL
IL-15: 15.16 pg/mL
IL-17A: <1.55↓ pg/ml
IL-17E/IL-25: <20.59↓ pg/ml
IL-17F: <16.96↓ pg/ml
IL-18: 2.04 pg/mL
IL-22: 9.4 pg/mL
IL-27: 51.46 pg/mL
IP-10: 1871 pg/mL
M-GSF: 78 pg/mL
MCP-1: 782.17 pg/mL
MCP-3: 29.76 pg/mL
MDC: 1903 pg/mL
MIG: 33510 pg/mL
MIP-1a: 119.77 pg/mL
MIP-1b: 243.76 pg/mL
PDGF-AA: 51.36 pg/mL
PDGF-AB/BB: 107.03 pg/mL
RANTES: 15.66 pg/mL
TGF-a: 75.94 pg/mL
TNFa: 21.61 pg/mL
TNFb: <0.73↓ pg/ml
VEGFa: <1.27↓ pg/ml
changes in cytokine profiles: did not induce significant changes
sCD40L: 84.33 pg/mL
